Laboratory results taken from ChEMBL document CHEMBL4396930, “Identification of new dual FABP4/5 inhibitors based on a naphthalene-1-sulfonamide FABP4 inhibitor” (Bioorg Med Chem, 2019).
pIC50: −log10 of the molar value.

Assays:
3T3-L1 = assay: Cytotoxicity against mouse 3T3L1 cells assessed as reduction in cell viability at 30 to 60 uM incubated for 24 hrs by MTT assay; format: cell-based; conditions: 3t3-l1, 24 h
RAW264.7 [1] = assay: Cytotoxicity against mouse RAW264.7 cells assessed as reduction in cell viability at 30 to 60 uM incubated for 24 hrs by MTT assay; format: cell-based; conditions: raw264.7, 24 h
[2] = target: Fatty acid-binding protein, adipocyte (Homo sapiens, UniProt P15090); assay: Displacement of 1,8-ANS from human recombinant full length N-terminal his-tagged FABP4 expressed in Escherichia coli BL21 (DE3) incubated for 3 mins by fluorescence based assay
RAW264.7 [3] = assay: Antiinflammatory activity against mouse RAW264.7 cells assessed as inhibition of LPS-induced MCP-1 gene expression level at 30 uM preincubated for 12 hrs followed by LPS addition and measured after 6 hrs by qRT PCR analysis relative to control; format: functional
[4] = target: Fatty acid-binding protein, heart (Homo sapiens, UniProt P05413); assay: Displacement of 1,8-ANS from FABP3 (unknown origin) incubated for 3 mins by fluorescence based assay
RAW264.7 [5] = assay: Antiinflammatory activity against mouse RAW264.7 cells assessed as inhibition of LPS-induced TNFalpha gene expression level at 30 uM preincubated for 12 hrs followed by LPS addition and measured after 6 hrs by qRT PCR analysis relative to control; format: functional
[6] = target: Fatty acid-binding protein 5 (Homo sapiens, UniProt Q01469); assay: Displacement of 1,8-ANS from human recombinant full length N-terminal his-tagged FABP5 expressed in Escherichia coli BL21 (DE3) incubated for 3 mins by fluorescence based assay
Fatty acid-binding protein 5, sequence (Q01469 whole entry): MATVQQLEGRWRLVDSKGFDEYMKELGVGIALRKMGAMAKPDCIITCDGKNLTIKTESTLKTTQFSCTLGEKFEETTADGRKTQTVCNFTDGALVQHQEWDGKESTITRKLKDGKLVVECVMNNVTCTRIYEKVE

Fatty acid-binding protein, adipocyte, sequence (P15090 whole entry): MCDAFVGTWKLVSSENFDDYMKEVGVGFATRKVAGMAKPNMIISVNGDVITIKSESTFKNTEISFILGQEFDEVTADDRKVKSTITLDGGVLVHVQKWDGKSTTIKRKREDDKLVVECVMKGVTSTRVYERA
Fatty acid-binding protein, heart, sequence (P05413 whole entry): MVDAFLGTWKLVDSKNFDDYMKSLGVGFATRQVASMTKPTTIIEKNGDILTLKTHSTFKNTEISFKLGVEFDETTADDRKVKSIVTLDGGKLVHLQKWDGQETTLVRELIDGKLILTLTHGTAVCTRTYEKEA

pIC50 [2]	pIC50 [6]	Structure (SMILES)	further results
		COc1ccc(S(=O)(=O)Nc2ccc(F)c(C(=O)O)c2)c2ccccc12	Activity (3T3-L1): Non-Toxic; Activity (RAW264.7 [1]): Non-Toxic
5.77		COc1c(-c2cccc(N)c2)cc(S(=O)(=O)Nc2ccc(F)c(C(=O)O)c2)c2ccccc12	
5.53		COc1c(-c2ccc(F)c(F)c2)cc(S(=O)(=O)Nc2ccc(F)c(C(=O)O)c2)c2ccccc12	
5.72		COc1c(-c2cccc(O)c2)cc(S(=O)(=O)Nc2ccc(F)c(C(=O)O)c2)c2ccccc12	
5.71	5.31	O=C(O)c1cc(NS(=O)(=O)c2ccc(OCCC3CCCCC3)c3ccccc23)ccc1F	Activity (3T3-L1): Non-Toxic; Activity (RAW264.7 [1]): Non-Toxic; inhibition at 30 µM (RAW264.7 [3]): 29%; pIC50 [4]: 4.25; inhibition at 30 µM (RAW264.7 [5]): 24%
5.44	5.44	O=C(O)c1cc(NS(=O)(=O)c2ccc(OCCCC3CCCCC3)c3ccccc23)ccc1F	
5.64	5.56	CCCCCCCOc1ccc(S(=O)(=O)Nc2ccc(F)c(C(=O)O)c2)c2ccccc12	
5.61	5.38	CCCCCCOc1ccc(S(=O)(=O)Nc2ccc(F)c(C(=O)O)c2)c2ccccc12	
5.63	5.48	O=C(O)c1cc(NS(=O)(=O)c2ccc(OC3CCCCCC3)c3ccccc23)ccc1F	
4.83	5.34	O=C(O)c1cc(NS(=O)(=O)c2ccc(OCC34CC5CC(CC(C5)C3)C4)c3ccccc23)ccc1F	
5.92		COc1c(-c2ccc(O)cc2)cc(S(=O)(=O)Nc2ccc(F)c(C(=O)O)c2)c2ccccc12	
5.39	5.38	CCCCCCCCOc1ccc(S(=O)(=O)Nc2ccc(F)c(C(=O)O)c2)c2ccccc12	
5.52	5.08	CCCCCOc1ccc(S(=O)(=O)Nc2ccc(F)c(C(=O)O)c2)c2ccccc12	
5.58		CCOc1ccc(S(=O)(=O)Nc2ccc(F)c(C(=O)O)c2)c2ccccc12	
5.66	5.12	O=C(O)c1cc(NS(=O)(=O)c2ccc(OC3CCCCC3)c3ccccc23)ccc1F	
5.80		COc1c(-c2ccc(F)c(Cl)c2)cc(S(=O)(=O)Nc2ccc(F)c(C(=O)O)c2)c2ccccc12	Activity (3T3-L1): Non-Toxic; Activity (RAW264.7 [1]): Non-Toxic; inhibition at 30 µM (RAW264.7 [3]): 32%; pIC50 [4]: 4.33; inhibition at 30 µM (RAW264.7 [5]): 23%
5.76	5.00	COc1c(-c2ccc(F)cc2)cc(S(=O)(=O)Nc2ccc(F)c(C(=O)O)c2)c2ccccc12	
5.45		COc1c(-c2ccoc2)cc(S(=O)(=O)Nc2ccc(F)c(C(=O)O)c2)c2ccccc12	
5.36		COc1c(-c2ccc(Cl)c(Cl)c2)cc(S(=O)(=O)Nc2ccc(F)c(C(=O)O)c2)c2ccccc12	
5.33	5.35	CCCCCCCCCCOc1ccc(S(=O)(=O)Nc2ccc(F)c(C(=O)O)c2)c2ccccc12	
4.61		CCCCCCCCCCCCOc1ccc(S(=O)(=O)Nc2ccc(F)c(C(=O)O)c2)c2ccccc12	
5.50		O=C(O)c1cc(NS(=O)(=O)c2ccc(OCc3ccccc3)c3ccccc23)ccc1F	
5.92		COc1c(-c2ccccc2)cc(S(=O)(=O)Nc2ccc(F)c(C(=O)O)c2)c2ccccc12	
		Cc1c(Cl)cccc1OCc1cc(=O)n2nc(-c3ccccc3)nc2[nH]1	Activity (3T3-L1): Toxic; Activity (RAW264.7 [1]): Toxic
5.45		COc1c(-c2ccncc2)cc(S(=O)(=O)Nc2ccc(F)c(C(=O)O)c2)c2ccccc12	
5.62	5.09	O=C(O)c1cc(NS(=O)(=O)c2ccc(OCC3CCCCC3)c3ccccc23)ccc1F	
